Measurements reported in patent publication US10168342B2, “Lipid probes and uses thereof” (THE SCRIPPS RESEARCH INSTITUTE, priority 2015, dated 2019).

Legend:
Assay in all cases: In situ competitive SILAC profiling with A-DA probe in (PMA-stimulated) A549 cells
Settings in all cases: A549 cells, A-DA probe
[1] = molecular target: A-DA lipid probe targets in A549 cells (Homo sapiens, UniProt P21796)
[2] = molecular target: T1, A-DA lipid probe targets in A549 cells (Homo sapiens, UniProt P67812)
T1 sequence (P67812 1-179): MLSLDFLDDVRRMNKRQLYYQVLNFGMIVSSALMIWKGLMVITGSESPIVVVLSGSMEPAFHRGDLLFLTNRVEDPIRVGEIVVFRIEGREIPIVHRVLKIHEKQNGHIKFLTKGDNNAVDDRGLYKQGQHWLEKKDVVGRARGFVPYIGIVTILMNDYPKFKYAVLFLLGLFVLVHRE

[3] = molecular target: T2, A-DA lipid probe targets in A549 cells (Homo sapiens, UniProt Q53GQ0)
T2 sequence (Q53GQ0 1-312): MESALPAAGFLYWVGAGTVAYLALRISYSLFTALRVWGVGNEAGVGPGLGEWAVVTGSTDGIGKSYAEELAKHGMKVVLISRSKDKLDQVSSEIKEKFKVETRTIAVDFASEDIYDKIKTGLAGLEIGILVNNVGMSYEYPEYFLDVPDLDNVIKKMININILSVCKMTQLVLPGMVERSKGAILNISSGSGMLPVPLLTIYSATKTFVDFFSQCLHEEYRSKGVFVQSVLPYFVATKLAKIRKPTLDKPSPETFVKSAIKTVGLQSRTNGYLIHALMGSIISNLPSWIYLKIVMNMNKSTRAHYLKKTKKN

[4] = molecular target: T3, A-DA lipid probe targets in A549 cells (Homo sapiens, UniProt Q86XL3)
T3 sequence (Q86XL3 1-938): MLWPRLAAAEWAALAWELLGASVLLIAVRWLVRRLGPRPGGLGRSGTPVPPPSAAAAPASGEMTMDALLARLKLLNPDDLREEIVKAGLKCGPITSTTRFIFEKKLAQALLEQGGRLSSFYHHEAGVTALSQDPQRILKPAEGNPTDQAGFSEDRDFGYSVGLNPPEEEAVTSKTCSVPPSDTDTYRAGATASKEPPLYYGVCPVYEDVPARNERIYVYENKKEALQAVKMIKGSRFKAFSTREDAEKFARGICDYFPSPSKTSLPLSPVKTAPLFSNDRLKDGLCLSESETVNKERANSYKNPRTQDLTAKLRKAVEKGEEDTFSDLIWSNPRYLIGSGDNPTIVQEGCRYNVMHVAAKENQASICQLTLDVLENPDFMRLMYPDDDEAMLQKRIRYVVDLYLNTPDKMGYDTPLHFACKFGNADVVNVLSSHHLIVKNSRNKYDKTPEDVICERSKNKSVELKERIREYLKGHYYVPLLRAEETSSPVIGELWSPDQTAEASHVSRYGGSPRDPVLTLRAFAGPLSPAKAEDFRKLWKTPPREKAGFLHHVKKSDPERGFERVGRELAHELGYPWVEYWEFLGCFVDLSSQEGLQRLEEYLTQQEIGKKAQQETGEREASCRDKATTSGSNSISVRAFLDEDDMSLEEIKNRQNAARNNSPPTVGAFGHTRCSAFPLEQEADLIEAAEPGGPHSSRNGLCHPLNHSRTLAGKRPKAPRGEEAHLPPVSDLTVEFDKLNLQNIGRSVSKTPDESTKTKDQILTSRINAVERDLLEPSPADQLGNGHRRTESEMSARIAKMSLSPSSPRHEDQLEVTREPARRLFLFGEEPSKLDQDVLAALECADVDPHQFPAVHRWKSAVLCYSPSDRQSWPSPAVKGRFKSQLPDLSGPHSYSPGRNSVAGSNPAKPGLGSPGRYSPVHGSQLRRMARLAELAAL

[5] = molecular target: T4, A-DA lipid probe targets in A549 cells (Homo sapiens, UniProt Q8IZV5)
T4 sequence (Q8IZV5 1-341): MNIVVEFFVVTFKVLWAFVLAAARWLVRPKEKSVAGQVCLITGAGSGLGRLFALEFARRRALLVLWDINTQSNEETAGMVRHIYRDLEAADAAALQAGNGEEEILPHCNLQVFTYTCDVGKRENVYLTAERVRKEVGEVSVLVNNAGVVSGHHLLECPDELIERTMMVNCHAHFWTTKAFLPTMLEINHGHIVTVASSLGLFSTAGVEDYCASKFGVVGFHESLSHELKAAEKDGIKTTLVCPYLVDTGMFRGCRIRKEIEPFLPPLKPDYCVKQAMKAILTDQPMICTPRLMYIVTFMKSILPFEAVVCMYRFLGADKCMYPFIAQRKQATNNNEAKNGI

[6] = molecular target: T5, A-DA lipid probe targets in A549 cells (Homo sapiens, UniProt Q8N5I4)
T5 sequence (Q8N5I4 1-330): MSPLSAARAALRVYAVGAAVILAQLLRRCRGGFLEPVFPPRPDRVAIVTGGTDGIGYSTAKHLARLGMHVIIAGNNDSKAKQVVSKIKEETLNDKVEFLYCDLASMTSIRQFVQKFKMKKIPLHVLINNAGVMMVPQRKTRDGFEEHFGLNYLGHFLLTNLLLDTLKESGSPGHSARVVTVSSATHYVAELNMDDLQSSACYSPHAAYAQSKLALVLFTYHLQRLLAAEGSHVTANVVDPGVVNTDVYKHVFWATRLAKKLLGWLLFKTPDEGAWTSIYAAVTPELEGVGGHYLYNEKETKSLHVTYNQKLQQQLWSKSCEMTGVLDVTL

[7] = molecular target: A-DA lipid probe targets in A549 cells (Homo sapiens, UniProt Q9Y639)
A-DA lipid probe targets in A549 cells (Homo sapiens, UniProt Q9Y639), sequence (Q9Y639 29-398): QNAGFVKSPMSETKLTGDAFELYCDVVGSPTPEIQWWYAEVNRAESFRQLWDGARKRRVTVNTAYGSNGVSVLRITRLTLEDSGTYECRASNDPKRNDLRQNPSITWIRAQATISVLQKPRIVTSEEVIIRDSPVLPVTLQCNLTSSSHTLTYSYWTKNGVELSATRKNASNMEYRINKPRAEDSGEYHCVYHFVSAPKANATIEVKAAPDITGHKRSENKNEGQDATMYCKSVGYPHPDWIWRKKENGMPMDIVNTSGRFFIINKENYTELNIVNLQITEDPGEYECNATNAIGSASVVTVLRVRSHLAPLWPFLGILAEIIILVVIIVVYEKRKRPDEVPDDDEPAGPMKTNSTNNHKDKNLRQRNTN

A-DA lipid probe targets in A549 cells (Homo sapiens, UniProt P21796), sequence (P21796 whole entry): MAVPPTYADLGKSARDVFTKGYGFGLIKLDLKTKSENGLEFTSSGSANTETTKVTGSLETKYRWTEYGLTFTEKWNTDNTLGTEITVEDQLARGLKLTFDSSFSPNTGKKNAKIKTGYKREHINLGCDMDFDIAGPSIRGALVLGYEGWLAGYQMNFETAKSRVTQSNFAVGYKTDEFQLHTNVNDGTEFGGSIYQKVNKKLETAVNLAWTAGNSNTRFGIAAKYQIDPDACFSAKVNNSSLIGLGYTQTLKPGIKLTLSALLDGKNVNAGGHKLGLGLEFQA

O=C(/C=C/c1cccnc1)NCCCCC1CCN(C(=O)c2ccccc2)CC1 [FK-866, reference compound]
SILAC ratio, VDAC1 (P21796) ([1]; competitor 25 μM): 1.3 | SILAC ratio, SEC11A (P67812) ([2]; competitor 25 μM): 1.2 | SILAC ratio, HSD17B12 (Q53GQ0) ([3]; competitor 25 μM): 1.4 | SILAC ratio, ANKLE2 (Q86XL3) ([4]; competitor 25 μM): 1.3 | SILAC ratio, RDH10 (Q8IZV5) ([5]; competitor 25 μM): 3.1 | SILAC ratio, DHRSX (Q8N5I4) ([6]; competitor 25 μM): 1.4 | SILAC ratio, NPTN (Q9Y639) ([7]; competitor 25 μM): 1.4

C=CCN(C)CCCCCCOc1ccc(C(=O)c2ccc(Br)cc2)c(F)c1 [Ro488071]
SILAC ratio, VDAC1 (P21796) ([1]; competitor 5 μM): 1.4 | SILAC ratio, VDAC1 (P21796) ([1]; competitor 50 μM): 3.3 | SILAC ratio, SEC11A (P67812) ([2]; competitor 5 μM): 1.5 | SILAC ratio, SEC11A (P67812) ([2]; competitor 50 μM): 3.3 | SILAC ratio, HSD17B12 (Q53GQ0) ([3]; competitor 5 μM): 1.4 | SILAC ratio, HSD17B12 (Q53GQ0) ([3]; competitor 50 μM): 3.0 | SILAC ratio, ANKLE2 (Q86XL3) ([4]; competitor 5 μM): 1.7 | SILAC ratio, ANKLE2 (Q86XL3) ([4]; competitor 50 μM): 3.1 | SILAC ratio, RDH10 (Q8IZV5) ([5]; competitor 5 μM): 1.9 | SILAC ratio, RDH10 (Q8IZV5) ([5]; competitor 50 μM): 2.8 | SILAC ratio, DHRSX (Q8N5I4) ([6]; competitor 5 μM): 1.6 | SILAC ratio, DHRSX (Q8N5I4) ([6]; competitor 50 μM): 2.7 | SILAC ratio, NPTN (Q9Y639) ([7]; competitor 5 μM): 1.3 | SILAC ratio, NPTN (Q9Y639) ([7]; competitor 50 μM): 3.0
